{"source": "patent US20250145601A1", "about": "“NOVEL BICYCLIC COMPOUNDS AS RAD51 INHIBITORS” (SATYA THERAPEUTICS, INC., priority 2022, published 2025)", "data": [{"system": "MDA MB 231 cells", "assay": "Antiproliferation assay in MDA MB 231 cells (Cell Titer Glo)", "assay_type": "cell-based", "settings": "Homo sapiens, MDA-MB-231, 216 h, MDAMB231 cell line, 9 day treatment, racemic compounds (Table 2)", "experimental": "(§1) Antiproliferation Assay in MDA MB 231 Cells MDA MB 231 cells were seeded in 96 well plate at a seeding density of 250 cells/well. The cells were allowed to settle overnight under standard incubator conditions (37° C., 5% CO2). Next day treatment with increasing dose of test compounds and reference compounds were done to the respective wells and the cells were further incubated under standard cell culture conditions for another 4 days. On the 5th day, media was replenished with fresh treatment and cells were incubated for a total of 9 day treatment period. On the day of termination, appropriate volume of Cell Titer Glo reagent was added to the treatment (and control) wells and the plates were kept on a plate shaker @300 RPM for 15 min. Luminiscence reading (RLU) was […] RLU is directly proportional to ATP content and is directly related to number of metabolically active cells in the respective well. Calculation: a. Blank Correction: RLU of the Wells Containing No Cells is Considered as Blank and Subtracted from all RLU of the Treated and Control Wells [formula]", "units": {"inhibition at 10 µM": "%"}, "values": [{"molecule": "CCC(=O)N1N=C(c2c(C)c3cc(Cl)ccc3[nH]c2=O)CC1c1ccc(OC)cc1", "note": "(centres unmarked) [Example 1, 6-Chloro-3-(5-(4-methoxyphenyl)-1-propionyl-4,5-dihydro-1H-pyrazol-3-yl)-4-methylquinolin-2(1H)-one]", "inhibition at 10 µM": "≥ 50"}, {"molecule": "CCC(=O)N1N=C(c2c(C)c3ccsc3[nH]c2=O)CC1C1CCCCC1", "note": "(centres unmarked) [Example 58, 5-(5-cyclohexyl-1-propionyl-4,5-dihydro-1H-pyrazol-3-yl)-4-methylthieno[2,3-b]pyridin-6(7H)-one]", "inhibition at 10 µM": "< 50"}, {"molecule": "CCC(=O)N1N=C(c2c(C)c3ccsc3[nH]c2=O)CC1c1cnc(C)c(Cl)c1", "note": "(centres unmarked) [Example 52, 5-(5-(5-chloro-6-methylpyridin-3-yl)-1-propionyl-4,5-dihydro-1H-pyrazol-3-yl)-4-methylthieno[2,3-b]pyridin-6(7H)-one]", "inhibition at 10 µM": "≥ 50"}, {"molecule": "CCC(=O)N1N=C(c2cc3cc(Cl)ccc3[nH]c2=O)CC1c1ccc(OC)cc1", "note": "(centres unmarked) [Example 17, 6-Chloro-3-(5-(4-methoxyphenyl)-1-propionyl-4,5-dihydro-1H-pyrazol-3-yl)quinolin-2(1H)-one]", "inhibition at 10 µM": "≥ 50"}, {"molecule": "CCC(=O)N1N=C(c2c(C)c3ccsc3[nH]c2=O)CC1c1ccc(C(F)(F)F)cc1", "note": "(centres unmarked) [Example 42, 4-methyl-5-(1-propionyl-5-(4-(trifluoromethyl)phenyl)-4,5-dihydro-1H-pyrazol-3-yl)thieno[2,3-b]pyridin-6(7H)-one]", "inhibition at 10 µM": "≥ 50"}, {"molecule": "CCC(=O)N1N=C(c2c(C)c3ccsc3[nH]c2=O)CC1c1ccc(N(C)C)cc1", "note": "(centres unmarked) [Example 39, 5-(5-(4-(dimethylamino)phenyl)-1-propionyl-4,5-dihydro-1H-pyrazol-3-yl)-4-methylthieno[2,3-b]pyridin-6(7H)-one]", "inhibition at 10 µM": "≥ 50"}, {"molecule": "CCC(=O)N1N=C(c2c(C)c3ccsc3[nH]c2=O)CC1c1ccc(CC)cc1", "note": "(centres unmarked) [Example 44, 5-(5-(4-ethylphenyl)-1-propionyl-4,5-dihydro-1H-pyrazol-3-yl)-4-methylthieno[2,3-b]pyridin-6(7H)-one]", "inhibition at 10 µM": "≥ 50"}, {"molecule": "CCC(=O)N1N=C(c2c(C)c3ccsc3[nH]c2=O)CC1c1ccccc1", "note": "(centres unmarked) [Example 32, 4-methyl-5-(5-phenyl-1-propionyl-4,5-dihydro-1H-pyrazol-3-yl)thieno[2,3-b]pyridin-6(7H)-one]", "inhibition at 10 µM": "< 50"}, {"molecule": "CCC(=O)N1N=C(c2c(C)c3ccc(N4CCOCC4)cc3[nH]c2=O)CC1c1ccc(C)cc1", "note": "(centres unmarked) [Example 77, 4-methyl-7-morpholino-3-(1-propionyl-5-(p-tolyl)-4,5-dihydro-1H-pyrazol-3-yl)quinolin-2(1H)-one]", "inhibition at 10 µM": "≥ 50"}, {"molecule": "CCC(=O)N1N=C(c2c(C)c3ccncc3[nH]c2=O)CC1c1ccc(C)cc1", "note": "(racemic) [Example 74, 4-methyl-3-(1-propionyl-5-(p-tolyl)-4,5-dihydro-1H-pyrazol-3-yl)-1,7-naphthyridin-2(1H)-one]", "inhibition at 10 µM": "≥ 50"}, {"molecule": "CC(=O)N1N=C(c2c(C)c3ccsc3[nH]c2=O)CC1c1ccc(C)cc1", "note": "(centres unmarked) [Example 62, 5-(1-acetyl-5-(p-tolyl)-4,5-dihydro-1H-pyrazol-3-yl)-4-methyl-7,7a-dihydrothieno[2,3-b]pyridin-6(7H)-one]", "inhibition at 10 µM": "≥ 50"}, {"molecule": "CCC(=O)N1N=C(c2c(C)c3ccsc3[nH]c2=O)CC1c1cnc(C)cc1C", "note": "(centres unmarked) [Example 50, 5-(5-(4,6-dimethylpyridin-3-yl)-1-propionyl-4,5-dihydro-1H-pyrazol-3-yl)-4-methylthieno[2,3-b]pyridin-6(7H)-one]", "inhibition at 10 µM": "< 50"}, {"molecule": "CCC(=O)N1N=C(c2c(C3CC3)c3cc(Cl)ccc3[nH]c2=O)CC1c1ccc(OC)cc1", "note": "(centres unmarked) [Example 23, 6-chloro-4-cyclopropyl-3-(5-(4-methoxyphenyl)-1-propionyl-4,5-dihydro-1H-pyrazol-3-yl)quinolin-2(1H)-one]", "inhibition at 10 µM": "≥ 50"}, {"molecule": "CCC(=O)N1N=C(c2c(C)c3cc(C)ncc3[nH]c2=O)CC1c1ccc(C)cc1", "note": "(centres unmarked) [Example 81, 4,6-dimethyl-3-(1-propionyl-5-(p-tolyl)-4,5-dihydro-1H-pyrazol-3-yl)-1,7-naphthyridin-2(1H)-one]", "inhibition at 10 µM": "< 50"}, {"molecule": "CCC(=O)N1N=C(c2c(C)c3cc(Cl)ccc3n(C)c2=O)CC1c1ccc(OC)cc1", "note": "(centres unmarked) [Example 18, 6-chloro-3-(5-(4-methoxyphenyl)-1-propionyl-4,5-dihydro-1H-pyrazol-3-yl)-1,4-dimethylquinolin-2(1H)-one]", "inhibition at 10 µM": "< 50"}, {"molecule": "CCC(=O)N1N=C(c2c(C)c3ccsc3[nH]c2=O)CC1c1cnc(C)nc1", "note": "(centres unmarked) [Example 51, 4-methyl-5-(5-(2-methylpyrimidin-5-yl)-1-propionyl-4,5-dihydro-1H-pyrazol-3-yl)thieno[2,3-b]pyridin-6(7H)-one]", "inhibition at 10 µM": "< 50"}, {"molecule": "CCC(=O)N1N=C(c2c(C)c3nc(Cl)ccc3[nH]c2=O)CC1c1ccc(C)cc1", "note": "(centres unmarked) [Example 61, 6-chloro-4-methyl-3-(1-propionyl-5-(p-tolyl)-4,5-dihydro-1H-pyrazol-3-yl)-1,5-naphthyridin-2(1H)-one]", "inhibition at 10 µM": "≥ 50"}, {"molecule": "CCC(=O)N1N=C(c2c(C)c3ccccc3[nH]c2=O)CC1c1ccc(C)cc1", "note": "(racemic) [Example 60, 4-methyl-3-(1-propionyl-5-(p-tolyl)-4,5-dihydro-1H-pyrazol-3-yl)quinolin-2(1H)-one]", "inhibition at 10 µM": "≥ 50"}, {"molecule": "CCC(=O)N1N=C(c2c(C)c3ccsc3[nH]c2=O)CC1c1ccc(C2CC2)cc1", "note": "(centres unmarked) [Example 47, 5-(5-(4-cyclopropylphenyl)-1-propionyl-4,5-dihydro-1H-pyrazol-3-yl)-4-methylthieno[2,3-b]pyridin-6(7H)-one]", "inhibition at 10 µM": "< 50"}, {"molecule": "CCC(=O)N1N=C(c2c(C)c3ncccc3[nH]c2=O)CC1c1ccc(OC)cc1", "note": "(centres unmarked) [Example 9, 3-(5-(4-Methoxyphenyl)-1-propionyl-4,5-dihydro-1H-pyrazol-3-yl)-4-methyl-1,5-naphthyridin-2(1H)-one]", "inhibition at 10 µM": "< 50"}, {"molecule": "CCC(=O)N1N=C(c2c(C)c3cccnc3[nH]c2=O)CC1c1ccc(C)cc1", "note": "(centres unmarked) [Example 73, 4-methyl-3-(1-propionyl-5-(p-tolyl)-4,5-dihydro-1H-pyrazol-3-yl)-1,8-naphthyridin-2(1H)-one]", "inhibition at 10 µM": "≥ 50"}, {"molecule": "CCC(=O)N1N=C(c2c(C)c3ccsc3[nH]c2=O)CC1c1cccnc1", "note": "(centres unmarked) [Example 36, 4-methyl-5-(1-propionyl-5-(pyridin-3-yl)-4,5-dihydro-1H-pyrazol-3-yl)thieno[2,3-b]pyridin-6(7H)-one]", "inhibition at 10 µM": "< 50"}, {"molecule": "CCC(=O)N1N=C(c2c(C)c3ncccc3[nH]c2=O)CC1c1ccc(C)cc1", "note": "(centres unmarked) [Example 69, 4-methyl-3-(1-propionyl-5-(p-tolyl)-4,5-dihydro-1H-pyrazol-3-yl)-1,5-naphthyridin-2(1H)-one]", "inhibition at 10 µM": "≥ 50"}, {"molecule": "CCC(=O)N1N=C(c2c(=O)[nH]cc3ccccc23)CC1c1ccc(OC)cc1", "note": "(centres unmarked) [Example 19, 4-(5-(4-methoxyphenyl)-1-propionyl-4,5-dihydro-1H-pyrazol-3-yl)isoquinolin-3(2H)-one]", "inhibition at 10 µM": "< 50"}, {"molecule": "CCC(=O)N1N=C(c2c(C)c3ccsc3[nH]c2=O)CC1Cc1ccccc1", "note": "(centres unmarked) [Example 71, 5-(5-benzyl-1-propionyl-4,5-dihydro-1H-pyrazol-3-yl)-4-methylthieno[2,3-b]pyridin-6(7H)-one]", "inhibition at 10 µM": "≥ 50"}, {"molecule": "CCC(=O)N1N=C(c2c(C)c3ccsc3[nH]c2=O)CC1c1csc(Br)c1", "note": "(centres unmarked) [Example 31, 5-(5-(5-bromothiophen-3-yl)-1-propionyl-4,5-dihydro-1H-pyrazol-3-yl)-4-methylthieno[2,3-b]pyridin-6(7H)-one]", "inhibition at 10 µM": "< 50"}, {"molecule": "Cc1ccc(C2CC(c3c(C)c4ccsc4[nH]c3=O)=NN2C(=O)C(F)(F)F)cc1", "note": "(centres unmarked) [Example 64, 4-methyl-5-(5-(p-tolyl)-1-(2,2,2-trifluoroacetyl)-4,5-dihydro-1H-pyrazol-3-yl)-7,7a-dihydrothieno[2,3-b]pyridin-6(7H)-one]", "inhibition at 10 µM": "≥ 50"}, {"molecule": "Cc1ccc(C2CC(c3c(C)c4ccsc4[nH]c3=O)=NN2C(=O)C(C)C)cc1", "note": "(centres unmarked) [Example 63, 5-(1-isobutyryl-5-(p-tolyl)-4,5-dihydro-1H-pyrazol-3-yl)-4-methyl-7,7a-dihydrothieno[2,3-b]pyridin-6(7H)-one]", "inhibition at 10 µM": "≥ 50"}, {"molecule": "CCC(=O)N1N=C(c2c(C)c3ccc(C)nc3[nH]c2=O)CC1c1ccc(C)cc1", "note": "(centres unmarked) [Example 84, 4,7-dimethyl-3-(1-propionyl-5-(p-tolyl)-4,5-dihydro-1H-pyrazol-3-yl)-1,8-naphthyridin-2(1H)-one]", "inhibition at 10 µM": "≥ 50"}]}, {"system": "MDA MB 231 cells", "assay": "Antiproliferation assay in MDA MB 231 cells (Cell Titer Glo)", "assay_type": "cell-based", "settings": "Homo sapiens, MDA-MB-231, 216 h, MDAMB231 cell line, 9 day treatment, separated enantiomers A/B (Table 3)", "experimental": "as §1", "units": {"inhibition at 10 µM": "%"}, "values": [{"molecule": "CCC(=O)N1N=C(c2c(C)c3ccncc3[nH]c2=O)CC1c1ccc(C)cc1", "note": "(single isomer, unassigned) [Example 74A]", "inhibition at 10 µM": "≥ 50"}, {"molecule": "CCC(=O)N1N=C(c2c(C)c3ccccc3[nH]c2=O)C[C@@H]1c1ccc(C)cc1", "note": "(stereo in doubt) [Example 60A, rel-(R)-4-methyl-3-(1-propionyl-5-(p-tolyl)-4,5-dihydro-1H-pyrazol-3-yl)quinolin-2-(1H)-one]", "inhibition at 10 µM": "≥ 50"}, {"molecule": "CCC(=O)N1N=C(c2c(C)c3ccsc3[nH]c2=O)CC1c1ccc(C)nc1", "note": "(single isomer, unassigned) [Example 45B]", "inhibition at 10 µM": "≥ 50"}, {"molecule": "CCC(=O)N1N=C(c2c(C)c3ccsc3[nH]c2=O)CC1c1ccc(C)cc1F", "note": "(single isomer, unassigned) [Example 66A]", "inhibition at 10 µM": "≥ 50"}, {"molecule": "CCC(=O)N1N=C(c2c(C)c3ccsc3[nH]c2=O)CC1c1ccc(OC)cc1", "note": "(single isomer, unassigned) [Example 20A]", "inhibition at 10 µM": "≥ 50"}]}, {"system": "MDA MB 231 cells", "assay": "Antiproliferation assay in MDA MB 231 cells (Cell Titer Glo)", "assay_type": "cell-based", "settings": "MDAMB231 cell line, 9 day treatment, separated enantiomers A/B (Table 3), 10 µM", "experimental": "as §1", "values": [{"molecule": "CCC(=O)N1N=C(c2c(C)c3ccsc3[nH]c2=O)CC1c1ccc(C)nc1", "note": "(single isomer, unassigned) [Example 45A]", "% inhibition @ 10 μM": "++ (<50% ++)"}]}]}
